# According to patent publication US20210196720A1 (UROVANT SCIENCES GMBH, priority 2018, published 2021):
# How the values were obtained:
# [1] = Phase 2b OAB study, cardiovascular safety (HR, SBP, DBP, orthostatic AEs); type: in vivo, human
# Text: None led to discontinuation. The overall incidence of orthostatic symptoms was low.
# Small differences in the percent of subjects exceeding categorical heart rate and blood pressure thresholds for vibegron were similar to those in the tolterodine arm.
# [2] = Phase 2b OAB study, adverse events
# Text: A placebo group was included in the main study, and a group that received tolterodine monotherapy was included in the main study and in the extension.
# [3] = target: β2-AR (Homo sapiens, UniProt P07550); experiment: Competition binding assay, recombinant β2-AR
# [4] = Phase 2b OAB study, trough concentrations; type: in vivo, human; conditions: OAB patients
# β2-AR, sequence (P07550 whole entry): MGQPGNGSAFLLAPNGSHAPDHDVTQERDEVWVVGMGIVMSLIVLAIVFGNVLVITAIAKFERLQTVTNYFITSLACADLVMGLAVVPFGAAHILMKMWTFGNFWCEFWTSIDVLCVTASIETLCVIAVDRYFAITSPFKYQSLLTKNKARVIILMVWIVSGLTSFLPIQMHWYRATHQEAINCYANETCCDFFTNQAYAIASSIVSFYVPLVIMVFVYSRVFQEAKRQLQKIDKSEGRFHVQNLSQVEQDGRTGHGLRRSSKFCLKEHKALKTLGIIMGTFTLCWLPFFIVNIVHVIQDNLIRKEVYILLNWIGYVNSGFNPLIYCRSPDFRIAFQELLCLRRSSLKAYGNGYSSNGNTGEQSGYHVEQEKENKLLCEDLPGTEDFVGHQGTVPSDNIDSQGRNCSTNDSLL
structure (smiles),measurement,setting,value
"O=C(Nc1ccc(C[C@@H]2CC[C@H]([C@H](O)c3ccccc3)N2)cc1)[C@@H]1CCc2nccc(=O)n21 [Vibegron, (6S)-N-[4-[[(2S,5R)-5-[(R)-hydroxy(phenyl)methyl]pyrrolidin-2-yl]methyl]phenyl]-4-oxo-7,8-dihydro-6H-pyrrolo[1,2-a]pyrimidine-6-carboxamide]","DBP change from baseline, mean (95% CI) max, week 1 to 8",[1]; 3 mg,"5.03 (3.92, 6.15) mm Hg"
same,"DBP change from baseline, mean (95% CI), week 1",[1]; 3 mg,"−0.37 (−1.69, 0.95) mm Hg"
same,"HR change from baseline, mean (95% CI) maximum, week 1 to 8",[1]; 3 mg,"5.57 (4.25, 6.90) bpm"
same,"HR change from baseline, mean (95% CI), week 1",[1]; 3 mg,"0.36 (−0.90, 1.62) bpm"
same,"SBP change from baseline, mean (95% CI) maximum, week 1 to 8",[1]; 3 mg,"7.14 (5.18, 9.10) mm Hg"
same,"SBP change from baseline, mean (95% CI), week 1",[1]; 3 mg,"−0.35 (−2.34, 1.65) mm Hg"
same,"DBP change from baseline, mean (95% CI) max, week 1 to 8",[1]; 15 mg,"6.37 (5.20, 7.53) mm Hg"
same,"DBP change from baseline, mean (95% CI), week 1",[1]; 15 mg,"0.03 (−1.52, 1.59) mm Hg"
same,"HR change from baseline, mean (95% CI) maximum, week 1 to 8",[1]; 15 mg,"6.56 (5.20, 7.92) bpm"
same,"HR change from baseline, mean (95% CI), week 1",[1]; 15 mg,"0.35 (−1.15, 1.85) bpm"
same,"SBP change from baseline, mean (95% CI) maximum, week 1 to 8",[1]; 15 mg,"8.93 (7.18, 10.67) mm Hg"
same,"SBP change from baseline, mean (95% CI), week 1",[1]; 15 mg,"−0.34 (−2.46, 1.78) mm Hg"
same,subjects with orthostatic related AEs,[1]; 15 mg,0.3%
same,"DBP change from baseline, mean (95% CI) max, week 1 to 8",[1]; 50 mg,"4.19 (3.10, 5.29) mm Hg"
same,"DBP change from baseline, mean (95% CI), week 1",[1]; 50 mg,"−0.70 (−2.07, 0.67) mm Hg"
same,"HR change from baseline, mean (95% CI) maximum, week 1 to 8",[1]; 50 mg,"5.49 (4.28, 6.69) bpm"
same,"HR change from baseline, mean (95% CI), week 1",[1]; 50 mg,"0.29 (−0.88, 1.46) bpm"
same,"SBP change from baseline, mean (95% CI) maximum, week 1 to 8",[1]; 50 mg,"7.01 (5.31, 8.70) mm Hg"
same,"SBP change from baseline, mean (95% CI), week 1",[1]; 50 mg,"−0.79 (−2.65, 1.08) mm Hg"
same,"SBP and DBP change, difference from placebo","[1]; 50 mg and 100 mg, week 1 and maximum over 8 weeks",< 1 mm Hg
same,"DBP change from baseline, mean (95% CI) max, week 1 to 8",[1]; 100 mg,"4.80 (3.88, 5.72) mm Hg"
same,"DBP change from baseline, mean (95% CI), week 1",[1]; 100 mg,"−0.69 (−1.72, 0.34) mm Hg"
same,"HR change from baseline, mean (95% CI) maximum, week 1 to 8",[1]; 100 mg,"6.12 (5.10, 7.15) bpm"
same,"HR change from baseline, mean (95% CI), week 1",[1]; 100 mg,"0.35 (−0.69, 1.38) bpm"
same,"SBP change from baseline, mean (95% CI) maximum, week 1 to 8",[1]; 100 mg,"6.51 (5.09, 7.93) mm Hg"
same,"SBP change from baseline, mean (95% CI), week 1",[1]; 100 mg,"−0.77 (−2.22, 0.68) mm Hg"
same,subjects with orthostatic related AEs,[1]; 100 mg,1.1%
same,"HR mean maximum change over 8 weeks, difference from placebo",[1]; in vivo,< 2 bpm
same,tolerability,"[2]; Phase 2b, 3 to 100 mg",generally well tolerated
same,"≥1 AE, subjects","[2]; first 12 weeks, dose group by column",107 n
same,frequency of injuries,[2]; in vivo,0.9%
same,binding to β2-AR,[3],does not bind
same,mean (±SD) Ctrough,[4]; 50 mg QD,27.4 (±18.3) ng/mL
same,mean (±SD) Ctrough,[4]; 100 mg QD,73.6 (±65.5) ng/mL
